Reference: US20230131192A1, “1H-PYRAZOLO[4,3-d]PYRIMIDINE COMPOUNDS AS TOLL-LIKE RECEPTOR 7 (TLR7) AGONISTS” (BRISTOL-MYERS SQUIBB COMPANY, priority 2020, published 2023)
pEC50: −log10 of the molar value.

Assays:
[1] = test system: CD69; assay: Induction of CD69 in human whole blood; type: cell-based; conditions: 17 hrs, CD69 surface staining, 100% set to 1 uM of resiquimod, average where assay was performed multiple times, read-out: hWB CD69 EC50
Description: The induction of Type I interferon (IFN) MX-1 genes and the B-cell activation marker CD69 are downstream events that occur upon activation of the TLR7 pathway. The following is a human whole blood assay that measures their induction in response to a TLR7 agonist.
Heparinized human whole blood was harvested from human subjects and treated with test TLR7 agonist compounds at 1 mM. The blood was diluted with RPMI 1640 media and Echo was used to predot 10 nL per well giving a final concentration of 1 uM (10 nL in 10 uL of blood). After mixing on a shaker for 30 sec, the plates were covered and placed in a 37° C. chamber for o/n=17 hrs. Fixing/lysis buffer was prepared (5×→1× in H2O, warm at 37° C.; Cat # BD 558049) and kept the perm buffer (on ice) for later use.
For surface markers staining (CD69): prepared surface Abs: 0.045 ul hCD14-FITC (ThermoFisher Cat # MHCD1401)+0.6 ul hCD19-ef450 (ThermoFisher Cat #48-0198-42)+1.5 ul hCD69-PE (cat # BD555531)+0.855 ul FACS buffer. Added 3 ul/well, spin1000 rpm for 1 min and mixed on shaker for 30 sec, put on ice for 30 mins. Stop stimulation after 30 minutes with 70 uL of prewarmed 1× fix/lysis buffer and use Feliex mate to resuspend (15 times, change tips for each plate) and incubate at 37 C for 10 minutes.
Centrifuge at 2000 rpm for 5 minutes aspirate with HCS plate washer, mix on shaker for 30 sec and then wash with 70 uL in dPBS and pelleted 2×s (2000 rpm for 5 min) and 50 ul wash in FACS buffer pelleted 1×s(2000 rpm for 5 min). Mix on shaker for 30 sec. For Intracellular markers staining (MX-1): Add 50 ul of BD Perm buffer III and mix on shaker for 30 sec. Incubate on ice for 30 minutes (in the dark). Wash with 50 uL of FACS buffer 2× (spin @2300 rpm×5 min after perm) followed by mixing on shaker for 30 sec. Resuspended in 20 ul of FACS buffer containing MX1 antibody ( )(4812)-Alexa 647: Novus Biologicals #NBP2-43704AF647) 20 ul FACS bf+0.8 ul hlgG+0.04 ul MX-1. Spin 1000 rpm for 1 min, mix on shaker for 30se and the samples were incubated at RT in the dark for 45 minutes followed by washing 2×FACS buffer (spin @2300 rpm×5 min after perm). Resuspend 20 ul (35 uL total per well) of FACS buffer and cover with foil and place in 4° C. to read the following day. Plates were read on iQuePlus. The results were loaded into toolset and […] curves are generated in curve master. The y-axis 100% is set to 1 uM of resiquimod.

[2] = target: T1, human TLR7 (Homo sapiens, UniProt Q9NYK1); assay: Human TLR7 agonist (reporter) activity assay, HEK-Blue TLR7 cells, SEAP reporter; type: cell-based; conditions: 18 h treatment, average where assay was performed multiple times, read-out: hTLR7 Agonism EC50
T1 construct: host or cells: HEK-Blue TLR7 cells (engineered human embryonic kidney cells)
T1 sequence (Q9NYK1 27-1049): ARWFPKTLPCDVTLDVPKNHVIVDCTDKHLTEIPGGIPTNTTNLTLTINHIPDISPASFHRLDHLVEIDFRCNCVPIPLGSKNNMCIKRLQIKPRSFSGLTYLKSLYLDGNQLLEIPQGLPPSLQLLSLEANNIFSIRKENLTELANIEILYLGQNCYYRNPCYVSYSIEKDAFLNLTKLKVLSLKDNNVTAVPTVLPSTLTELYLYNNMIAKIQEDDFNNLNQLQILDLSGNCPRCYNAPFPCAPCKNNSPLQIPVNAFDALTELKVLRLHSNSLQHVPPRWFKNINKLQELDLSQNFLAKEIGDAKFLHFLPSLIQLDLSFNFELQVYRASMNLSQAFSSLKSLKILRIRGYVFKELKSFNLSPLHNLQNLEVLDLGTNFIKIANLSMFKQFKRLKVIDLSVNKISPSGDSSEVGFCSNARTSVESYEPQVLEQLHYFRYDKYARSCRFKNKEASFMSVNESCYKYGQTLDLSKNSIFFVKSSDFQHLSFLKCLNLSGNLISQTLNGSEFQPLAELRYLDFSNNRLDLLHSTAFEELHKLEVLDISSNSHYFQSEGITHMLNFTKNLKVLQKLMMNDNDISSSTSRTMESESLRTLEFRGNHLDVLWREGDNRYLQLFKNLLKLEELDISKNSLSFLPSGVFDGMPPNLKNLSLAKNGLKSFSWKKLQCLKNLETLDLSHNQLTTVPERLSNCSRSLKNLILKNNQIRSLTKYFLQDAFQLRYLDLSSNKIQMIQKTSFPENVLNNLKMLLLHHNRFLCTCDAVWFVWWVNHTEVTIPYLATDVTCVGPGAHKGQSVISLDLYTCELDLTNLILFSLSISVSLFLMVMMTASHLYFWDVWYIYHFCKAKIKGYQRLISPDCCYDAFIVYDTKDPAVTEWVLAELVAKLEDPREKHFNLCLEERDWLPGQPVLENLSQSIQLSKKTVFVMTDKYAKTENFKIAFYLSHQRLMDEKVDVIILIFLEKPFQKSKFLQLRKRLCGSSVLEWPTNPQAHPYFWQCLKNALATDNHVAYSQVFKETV
Description: This procedure describes a method for assaying human TLR7 (hTLR7) agonist activity of the compounds disclosed in this specification.
HEK-Blue™ TLR7 cells were added to each well of a 384-well tissue-culture plate (15,000 cells per well) and incubated 16-18 h at 37° C., 5% CO2. Compounds (100 nl) were dispensed into wells containing the HEK-Blue™ TLR cells and the treated cells were incubated at 37° C., 5% CO2. After 18 h treatment ten microliters of freshly-prepared Quanti-Blue™ reagent (Invivogen) was added to each well, incubated for 30 min (37° C., 5% CO2) and SEAP levels measured using an Envision plate reader (OD=620 nm). The half maximal effective concentration values (EC50; compound concentration which induced a response halfway between the assay baseline and maximum) were calculated.

COc1cc(CNC2CCC2)ccc1Cn1ncc2nc(N)nc(NCc3noc(C)n3)c21 [Compound 107, 1-({4-[(cyclobutylamino)methyl]-2-methoxyphenyl}methyl)-N7-[(5-methyl-1,2,4-oxadiazol-3-yl)methyl]-1H-pyrazolo[4,3-d]pyrimidine-5,7-diamine]
pEC50 [1]: 8.23
pEC50 [2]: 7.33

COc1cc(CNC2CCOCC2)ccc1Cn1ncc2nc(N)nc(NCC[C@H](O)C3CC3)c21 [Compound 109A, (1S)-3-({5-amino-1-[(2-methoxy-4-{[(oxan-4-yl)amino]methyl}phenyl)methyl]-1H-pyrazolo[4,3-d]pyrimidin-7-yl}amino)-1-cyclopropylpropan-1-ol]
pEC50 [1]: 7.12
pEC50 [2]: 6.47
